According to patent US6428972B2, “Biochemical method to measure niacin status in a biological sample” (Niadyne, Inc., priority 1998, dated 2002):
Where “and” joins values, the source holds several entries; their conditions need not be identical. Identical values can stand only once.

Tested on: NAD and NADP in whole blood
Details: hypercholesterolemia subjects, 750 mg of niacin twice daily for two months
Excerpt: The term niacin number has been chosen as a convenient way to represent niacin status and is defined as the ratio of the concentration of NAD to the concentration of NADP multiplied by 100 (100·[NAD]/[NADP]) in whole blood. For example, if the relative concentration of NADP([NADP]) is 1 and the relative concentration of NAD([NAD]) is 0.72, the niacin number would be 72 (from the formula 100·[NAD]/[NADP]=72 wherein [NAD] is 0.72 and [NADP] is 1). Expressing the values in this way yields a whole number that is linearly related to intracellular NAD content of red blood cells.

`O=C(O)c1cccnc1` [niacin, pyridine 3-carboxylic acid] was tested, and the Mean niacin number (pretherapy mean 175) was 665 and 665 ± 115 and the “Range observed (niacin number)” value (pretherapy range 131-242) was 517-746.
